# US6599541B1, “Composition for treatment of drug resistant bacterial infections and a method of treating drug resistant bacterial infections” (priority 1999, dated 2003)
# Where two headings read alike, the source gives them in different places.
# Key:
# [1] = test system: Enterobacter spp.; test: Broth Macro Dilution Test, MIC and MBC; format: cell-based; details: antibiotic alone
# Description: (§1) This was done by estimation of the Minimum Inhibitory Concentration (MIC) and Minimum Bactericidal Concentration (MBC) on the selected isolates by a Broth Macro Dilution Test.
# (§2) While conducting these tests, the guidelines given by the National committee of Clinical Laboratory Standards 1995 protocols were employed. Cation Supplemented Mueller Hinton Broth was used as medium for all organisms excepting for β haemolytic streptococci for which, Todd Hewit's Broth was used as medium.
# (§3) The following concentrations of antibiotics were tested to determine MIC and MBC.
# (§4) A minimum inhibitory concentration is the lowest level of antibiotic needed to cause an inhibition to bacterial growth in culture medium whereas, the minimum bactericidal concentration is the lowest concentration of antibiotic to achieve a 100% killing of bacteria. Thus, these two values are the practical indices of intensity of bacterial resistance to a given antibiotic. On the other hand, a break-even point of any antibiotic indicates the attainable blood levels after an administration of full dose, in human/animal body. Thus, this point indicates the practical dosage of administering any given antibiotic effectively and beyond this point, even if an antibiotic is found to act effectively in experimental situation—such dose cannot be administered in a clinical situation.
# [2] = test system: Escherichia coli; test: Broth Macro Dilution Test, MIC and MBC; format: cell-based; details: resistant to Ciprofloxacin, antibiotic alone, read-out: minimum bactericidal concentration (MBC)
# Description: as §1, §2, §3, §4
# [3] = test system: Klebsiella pneumoniae; test: Broth Macro Dilution Test, MIC and MBC; format: cell-based; details: antibiotic alone
# Description: as §1, §2, §3
# (§5) Co-trimoxazole (Sulpharnethoxazole/Trimethoprim/μg/μg per ml)
# as §4
# [4] = test system: Salmonella senftenberg; test: Broth Macro Dilution Test, MIC and MBC; format: cell-based; details: Example 13: strain from burn wound swab culture, antibiotic alone
# Description: as §1, §2, §3, §5, §4
# [5] = test system: Staphylococcus aureus; test: Broth Macro Dilution Test, MIC and MBC; format: cell-based; details: Example 12: strain from non-healing burn wound swab culture, antibiotic alone
# Experimental: as §1
# Cation Supplemented Mueller Hinton Broth was used as medium for all organisms excepting for β haemolytic streptococci for which, Todd Hewit's Broth was used as medium.
# as §3, §4
# [6] = test system: Enterobacter spp.; test: Broth tube test of NE with antibiotic at break point, percentage of killing; format: cell-based; details: for bacterial growth in control tubes: NE and antibiotic added individually; for bactericidal effect: antibiotic 4 μg/ml (break point) combined with NE 125, 250, 500, 1000 μg/ml
# Experimental: (§6) Since all the study isolates are resistant to the concerned antibiotics, each antibiotic is taken at its breakpoint concentration, (the highest serum concentration of that particular antibiotic reached after the maximum therapeutic dose in-vivo). The break points for various antibiotics are as follows:
# (§7) Preparation of Neem Extract: Stock solution of neem extract (1 mg/ml) was prepared, filtered and autoclaved. It was used in 4 concentrations—1000 μg/ml; 500 μg/ml; 250 μg/ml; 125 μg/ml.
# (§8) A set of four tubes with variable concentrations of the extract is prepared and to each of these tubes, the break point concentration of antibiotics is added. Now, these sets are inoculated with the study isolate in the same manner as per the broth dilution procedure. A set of six controls is inoculated with each isolate—in parallel with the main experiment.
# (§9) 2. Only antibiotic solution
# (§10) 3. Medium and antibiotic solution with inoculum
# (§11) 5. Only Neem extract at 250 μg/ml
# (§12) 6. Medium with Neem Extract and inoculum
# (§13) Reading the test All the tests and control tubes are observed for visible turbidity of growth first. Since all the study isolates were earlier confirmed to be resistant to the antibiotics, the bacterial growth is expected at the breakpoint concentration of the antibiotic. Any reduction in the turbidity as compared to the control tube no. 3 is noted as a possible additive or synergistic effect of the neem extract with the antibiotic. In absence of such effect, the tubes may show growth matching with the control no. 4.
# (§14) In case of a positive result, further sub-culturing was taken up, on solid media for colony counts with a calibrated loop. The colony counts could be noted by a semi quantitative method as 101 to 10^5 CFU/ml (Colony forming units). This is finally expressed as the percentage of killing as compared to the colony count obtained with control no. 4. Usually control tubes no. 3, 4 and 6 had similar colony counts.
# [7] = test system: Escherichia coli; test: as above; format: cell-based; details: for bacterial growth in control tubes: NE and antibiotic added individually; for bactericidal effect: antibiotic 4 μg/ml (break point) combined with NE 125, 250, 500, 1000 μg/ml
# Experimental: as §6, §7, §8, §9, §10, §11, §12, §13, §14
# [8] = test system: Klebsiella pneumoniae; test: as above; format: cell-based; details: for bacterial growth in control tubes: NE and antibiotic added individually
# Experimental: as §6, §7, §8, §9, §10, §11, §12, §13, §14
# [9] = test system: Salmonella senftenberg; test: as above; format: cell-based; details: Example 13 strain
# Experimental: as §6, §7, §8, §9, §10, §11, §12, §13, §14
# [10] = test system: Staphylococcus aureus; test: as above; format: cell-based; details: Example 12 strain
# Experimental: as §6, §7, §8, §9, §10, §11, §12, §13, §14
# [11] = highest serum concentration reached after the maximum therapeutic dose in-vivo; cited from earlier work
# [12] = test system: Pseudomonas aerugenosa; test: Agar Dilution Method of Sensitivity testing, NE + antibiotic; format: cell-based; details: for Growth Patterns after addition of NE: no. of cultures +++ (growth) / Growth Patterns after addition of NE: no. of cultures −−− (inhibition of growth): 16 resistant Pseudomonas strains, 48 hours
# Experimental: Two kinds of investigations were carried-out using these bacterial isolates—using an Agar Dilution Method of Sensitivity testing.
# i) The culture medium (Mueller Hinton Agar) was melted and distributed into a number of test tubes.
# ii) The stock solution of NE was dispensed into these test tubes in four different concentrations viz.
# iii) In the same medium, one of the antibiotics under investigation was also added so as to provide a variable concentration (at break-even point concentration) as described below:
# iv) The culture medium containing NE extract+the antibiotic were poured into petri dishes and allowed to solidify.
# v) The resistant bacterial strains were inoculated onto these plates, incubated for 48 hours and the growth patterns were studied on each plate.
# [13] = Example 11: isolate from Endotracheal catheter tip culture
# [14] = Example 3 strain, antibiotic at break point in combination with NE, uniform at 1000, 500, 250, 125 μg/ml
# [15] = Example 4 strain, antibiotic at break-even concentration with NE, uniform at all four NE concentrations
# [16] = antibiotic at break-even point + NE 125 μg/mL
# [17] = antibiotic at break-even point + NE 250 μg/mL
# [18] = antibiotic at break-even point + NE 500 μg/mL
# [19] = antibiotic at break-even point + NE 1000 μg/mL
# [20] = Example 3: strain from non-healing burn wound
# [21] = Example 4: strain from wound swab culture
compound,measurement,setting,value
O=C(O)c1cn(C2CC2)c2cc(N3CCNCC3)c(F)cc2c1=O [Ciprofloxacin],MBC,"[1]; Enterobacter, Example 10: isolate from Endotracheal Catheter Tip culture, read-out: minimum bactericidal concentration (MBC)",> 128 µg/mL
same,MIC,"[1]; Enterobacter, Example 10: isolate from Endotracheal Catheter Tip culture, read-out: minimum inhibitory concentration (MIC)",32 µg/mL
same,minimum bactericidal concentration (MBC),[1]; [13],> 128 µg/mL
same,minimum inhibitory concentration (MIC),[1]; [13],32 µg/mL
same,MBC,[2]; Example 1: isolate from wound infection,64 µg/mL
same,MBC,[2]; Example 2: isolate from endotracheal catheter tip culture,> 128 µg/mL
same,MBC,"[3]; Klebsiella pneumoniae, Example 3: strain from non-healing burn wound, read-out: MBC",> 64 µg/mL
same,MIC,"[3]; Klebsiella pneumoniae, Example 3: strain from non-healing burn wound, read-out: MIC",16 µg/mL
same,MBC,"[3]; Klebsiella pneumoniae, Example 4: strain from wound swab culture, read-out: MBC",> 128 µg/mL
same,MIC,"[3]; Klebsiella pneumoniae, Example 4: strain from wound swab culture, read-out: MIC",32 µg/mL
same,MBC,"[3]; Klebsiella pneumoniae, Example 5: isolate from Endotracheal Catheter Tip culture, read-out: minimum bactericidal concentration (MBC)",> 128 µg/mL
same,MIC,"[3]; Klebsiella pneumoniae, Example 5: isolate from Endotracheal Catheter Tip culture, read-out: minimum inhibitory concentration (MIC)",32 µg/mL
same,MBC,"[3]; Klebsiella pneumoniae, Example 6: isolate from Endotracheal Catheter tip culture, read-out: minimum bactericidal concentration (MBC)",> 128 µg/mL
same,MIC,"[3]; Klebsiella pneumoniae, Example 6: isolate from Endotracheal Catheter tip culture, read-out: minimum inhibitory concentration (MIC)",32 µg/mL
same,MBC,"[3]; Klebsiella pneumoniae, Example 7: isolate from endotracheal catheter tip culture, read-out: minimum bactericidal concentration (MBC)",> 128 µg/mL
same,MIC,"[3]; Klebsiella pneumoniae, Example 7: isolate from endotracheal catheter tip culture, read-out: minimum inhibitory concentration (MIC)",32 µg/mL
same,MBC,"[4]; Salmonella enterica, read-out: MBC",> 128 µg/mL
same,MIC,"[4]; Salmonella enterica, read-out: MIC",32 µg/mL
same,MBC,[5],> 128 µg/mL
same,MIC,[5],32 µg/mL
same,bacterial growth in control tubes,[6]; Example 10 isolate,unhindered
same,bactericidal effect,[6]; Example 10 isolate,80%
same,bacterial growth in control tubes,[6]; Example 11 isolate,unhindered
same,bactericidal effect,[6]; Example 11 isolate,50%
same,bacterial growth in control tubes,[7]; Example 1 isolate,unhindered
same,bactericidal effect,[7]; Example 1 isolate,100%
same,bacterial growth in control tubes,[7]; Example 2 isolate,unhindered
same,bactericidal effect,[7]; Example 2 isolate,40%
same,killing,[8]; [14],99%
same,killing,[8]; [15],90%
same,bacterial growth in control tubes,[8]; Example 5 isolate,unhindered
same,bactericidal effect,"[8]; Example 5 isolate, antibiotic 4 μg/ml (break-even point) combined with NE 125, 250, 500, 1000 μg/ml",90%
same,bacterial growth in control tubes,[8]; Example 6 isolate,unhindered
same,bactericidal effect,"[8]; Example 6 isolate, antibiotic 4 μg/ml (break point) combined with NE 125, 250, 500, 1000 μg/ml",80%
same,bacterial growth in control tubes,[8]; Example 7 isolate,unhindered
same,bactericidal effect,"[8]; Example 7 isolate, antibiotic 4 μg/ml (break point) combined with NE 125, 250, 500, 1000 μg/ml",50%
same,killing,[9]; antibiotic added to 1000 μg/ml NE,50%
same,killing effect,[9]; antibiotic with 500 μg/ml NE,somewhat low
same,killing effect,[9]; antibiotic with NE at other concentrations (below 500 μg/ml),not found
same,killing,[10]; antibiotic 4 μg/ml in combination with 250 μg/ml and 125 μg/ml NE,80%
same,bactericidal effect,"[10]; antibiotic 4 μg/ml with 1000 μg/ml, 500 μg/ml of NE",20%
same,break point,[11],4 µg/mL
CCN1CCN(C(=O)N[C@@H](C(=O)N[C@@H]2C(=O)N3[C@@H]2SC(C)(C)[C@@H]3C(=O)O)c2ccccc2)C(=O)C1=O [Piperacillin],Growth Patterns after addition of NE: no. of cultures +++ (growth),[12]; [16],3
same,Growth Patterns after addition of NE: no. of cultures −−− (inhibition of growth),[12]; [16],13
same,Growth Patterns after addition of NE: no. of cultures +++ (growth),[12]; [17],3
same,Growth Patterns after addition of NE: no. of cultures −−− (inhibition of growth),[12]; [17],13
same,Growth Patterns after addition of NE: no. of cultures +++ (growth),[12]; [18],3
same,Growth Patterns after addition of NE: no. of cultures −−− (inhibition of growth),[12]; [18],13
same,Growth Patterns after addition of NE: no. of cultures +++ (growth),[12]; [19],3
same,Growth Patterns after addition of NE: no. of cultures −−− (inhibition of growth),[12]; [19],13
same,isolates sensitized to the antibiotic by NE,"[12]; of 16 resistant strains, NE + antibiotic",13
Co-trimoxazole,MBC,[3]; [20],> 16/304
same,MIC,[3]; [20],8/152
same,MBC,[3]; [21],16/304
same,MIC,[3]; [21],8/152
same,MBC,[4],16/304
same,MIC,[4],8/152
same,killing,[8]; [14],50%
same,killing,[8]; [15],90%
same,killing,"[9]; antibiotic in combination with NE, uniform in all four concentrations",60%
